Measured values: patent US20250296953A1, “3,4-THIAZOLO-STEROIDS AND METHODS OF MAKING AND USING THE SAME” (Arkansas State University - Jonesboro, priority 2018, published 2025)

What was measured:
Experiment in all cases: Melanoma cytotoxicity assay (resazurin)
Format in all cases: cell-based
SK-MEL-28 = conditions: for SK-MEL-28 (% viability): human, 24 h; for SK-MEL-28 (% inhibition): SK-MEL-28 melanoma cells, 24 hours with compound, resazurin, concentration not given
Procedure: (§1) Cytotoxicity Assay: Melanoma cells (˜4000 cells in each well) were incubated in a 96 well plates at 37° C. in 5% CO2 for 24 hours. Compounds were added in triplicates and the plate was further incubated for 24 hours. DMSO and dacarbazine were added as technical and positive controls respectively. Next day resazurin was added and the plate was further incubated for 6 hours followed by reading the plate at 544 nm (excitation) and 590 nm (emission) using BMG Labtech Fluostar Optima plate reader. IC50 values were determined by using Graphpad Prism.
(§2) On day 1, the cell line trypsinized and centrifuged to form cell pellet. The pellet was diluted in media, then counted using Countess automated cell counter. Approximately 4000 cells (198 uL) per well plated in […]. A control well of 200 uL growth media was also prepared. Wells closest to plate perimeter were filled with 200 uL PBS to prevent inner well evaporation. The 96 well plates are incubated in 37° C. incubator at 5% CO2 for 24 hours.
(§3) On day 2, compounds were added (in triplicate) along with DMSO/Dacarbazine controls (2 uL) added to bring wells to volume of 200 μL. The 96 well plates are incubated in 37° C. incubator at 5% CO2 for 24 hours.
(§4) On day 3, 40 μL of 0.15 mg/ml reszurin solution added to wells. Samples were placed in a 37° C. incubator at 5% CO2 for 6 hours. Excitation and emission for fluorescence measured at 544 nm and 590 nm using BMG Labtech Fluostar Optima plate reader
(§5) Percent viability determined by taking average of each triplicate well fluorescence and subtracting GM well reading to remove the background signal. This difference is then divided by the average of the negative control (DMSO) wells to determine percent viability.
(§6) IC50s were determined by using cereal dilution of compound to determine viability. Viabilities and concentration of cells are analyzed in Graphpad Prism by creating sigmoidal curve graph, which will determine the IC50 concentration.
(§7) We analyzed the ability of the thiazole-androstane derivatives to inhibit growth in various melanoma cell lines. The growth inhibition against melanoma cell lines of various compound is shown below in Tables 19 and 20. Inhibition results are reported as the IC50 concentration in μM of the indicated compound or as the percent viability […] of the indicated compound. NA=not available.

SK-MEL-25 = SK-MEL-25 melanoma cells, 24 hours with compound, resazurin; concentration not given
Procedure: as §1, §2, §3, §4, §5, §6, §7

SK-MEL-5 = SK-MEL-5 melanoma cells, 24 hours with compound, resazurin; concentration not given
Procedure: as §1, §2, §3, §4, §5, §6, §7

Row | Compound | SK-MEL-28 (% viability) (SK-MEL-28) [%] | SK-MEL-25 (% inhibition) (SK-MEL-25) [%] | SK-MEL-28 (% inhibition) (SK-MEL-28) [%] | SK-MEL-5 (% inhibition) (SK-MEL-5) [%]
1 | C[C@]12CC[C@H]3[C@@H](CC=C4c5sc(-c6ccccn6)nc5CC[C@@]43C)[C@@H]1CC[C@@H]2O [III.4, (1S,2R,13R,14S,17S,18S)-2,18-dimethyl-7-(2-pyridyl)-8-thia-6-azapentacyclo[11.7.0.02,10.05,9.014,18]icosa-5(9),6,10-trien-17-ol] | 86 | – | – | –
2 | C=CCNc1nc2c(s1)CC[C@@]1(C)C2=CC[C@@H]2[C@@H]1CC[C@]1(C)C(=O)CC[C@@H]21 [IIa.3, (1S,2R,13R,14S,18S)-7-(allylamino)-2,18-dimethyl-6-thia-8-azapentacyclo[11.7.0.02,10.05,9.014,18]icosa-5(9),7,10-trien-17-one] | – | 68 | 65 | 57
3 | C[C@]12CC[C@H]3[C@@H](CC=C4c5sc(-c6ccc(O)c(O)c6)nc5CC[C@@]43C)[C@@H]1CC[C@@H]2O [III.7, 4-[(1S,2R,13R,14S,17S,18S)-17-hydroxy-2,18-dimethyl-8-thia-6-azapentacyclo[11.7.0.02,10.05,9.014,18]icosa-5(9),6,10-trien-7-yl]benzene-1,2-diol] | 11 | – | – | –
4 | C[C@]12CCc3sc(Nc4ccc(C(=O)O)cc4)nc3C1=CC[C@@H]1[C@@H]2CC[C@]2(C)C(=O)CC[C@@H]12 [IIa.23, 4-[[(1S,2R,13R,14S,18S)-2,18-dimethyl-17-oxo-6-thia-8-azapentacyclo[11.7.0.02,10.05,9.014,18]icosa-5(9),7,10-trien-7-yl]amino]benzoic acid] | – | 71 | 78 | 43
5 | C[C@]12CCc3sc(N)nc3C1=CC[C@@H]1[C@@H]2CC[C@]2(C)C(=O)CC[C@@H]12 [IIa.1, (1S,2R,13R,14S,18S)-7-amino-2,18-dimethyl-6-thia-8-azapentacyclo[11.7.0.02,10.05,9.014,18]icosa-5(9),7,10-trien-17-one] | – | – | 1 | 29
6 | CCCCNC1=NC2C3=CC[C@@H]4[C@H](CC[C@]5(C)C(=O)CC[C@@H]45)[C@@]3(C)CCC2S1 (stereo partly drawn) [IIa.31, (1S,2R,13R,14S,18S)-7-(butylamino)-2,18-dimethyl-6-thia-8-azapentacyclo[11.7.0.02,10.05,9.014,18]icosa-7,10-dien-17-one] | – | 74 | 93 | 69
7 | C[C@]12CCc3sc(Nc4cccc(C(=O)O)c4)nc3C1=CC[C@@H]1[C@@H]2CC[C@]2(C)C(=O)CC[C@@H]12 [IIa.34, 3-[[(1S,2R,13R,14S,18S)-2,18-dimethyl-17-oxo-6-thia-8-azapentacyclo[11.7.0.02,10.05,9.014,18]icosa-5(9),7,10-trien-7-yl]amino]benzoic acid] | – | 59 | 73 | 80
8 | COc1ccc(Cl)cc1Nc1nc2c(s1)CC[C@@]1(C)C2=CC[C@@H]2[C@@H]1CC[C@]1(C)C(=O)CC[C@@H]21 [IIa.20, (1S,2R,13R,14S,18S)-7-(5-chloro-2-methoxy-anilino)-2,18-dimethyl-6-thia-8-azapentacyclo[11.7.0.02,10.05,9.014,18]icosa-5(9),7,10-trien-17-one] | – | 83 | 95 | 70
9 | C[C@]12CCc3sc(Nc4ccccn4)nc3C1=CC[C@@H]1[C@@H]2CC[C@]2(C)C(=O)CC[C@@H]12 [IIa.21, (1S,2R,13R,14S,18S)-2,18-dimethyl-7-(2-pyridylamino)-6-thia-8-azapentacyclo[11.7.0.02,10.05,9.014,18]icosa-5(9),7,10-trien-17-one] | – | 58 | 93 | 88
10 | C[C@]12CCc3sc(Nc4ncccn4)nc3C1=CC[C@@H]1[C@@H]2CC[C@]2(C)C(=O)CC[C@@H]12 [IIa.22, (1S,2R,13R,14S,18S)-2,18-dimethyl-7-(pyrimidin-2-ylamino)-6-thia-8-azapentacyclo[11.7.0.02,10.05,9.014,18]icosa-5(9),7,10-trien-17-one] | – | 3 | 4 | 15
11 | C[C@]12CCc3nc(Nc4ccc(F)cc4)sc3C1=CC[C@@H]1[C@@H]2CC[C@]2(C)C(=O)CC[C@@H]12 [IIa.9, (1S,2R,13R,14S,18S)-7-(4-fluoroanilino)-2,18-dimethyl-8-thia-6-azapentacyclo[11.7.0.02,10.05,9.014,18]icosa-5(9),6,10-trien-17-one] | – | 61 | 90 | 58
12 | COc1ccccc1Nc1nc2c(s1)CC[C@@]1(C)C2=CC[C@@H]2[C@@H]1CC[C@]1(C)C(=O)CC[C@@H]21 [IIa.15, (1S,2R,13R,14S,18S)-7-(2-methoxyanilino)-2,18-dimethyl-6-thia-8-azapentacyclo[11.7.0.02,10.05,9.014,18]icosa-5(9),7,10-trien-17-one] | – | 67 | 13 | 76
13 | CC(=O)Nc1nc2c(s1)C1=CC[C@@H]3[C@H](CC[C@]4(C)C(=O)CC[C@@H]34)[C@@]1(C)CC2 [IIb.1, N-[(1S,2R,13R,14S,18S)-2,18-dimethyl-17-oxo-8-thia-6-azapentacyclo[11.7.0.02,10.05,9.014,18]icosa-5(9),6,10-trien-7-yl]acetamide] | – | 31 | 16 | 5
14 | C[C@]12CCc3sc(Nc4ccccc4[N+](=O)[O-])nc3C1=CC[C@@H]1[C@@H]2CC[C@]2(C)C(=O)CC[C@@H]12 [IIa.13, (1S,2R,13R,14S,18S)-2,18-dimethyl-7-(2-nitroanilino)-6-thia-8-azapentacyclo[11.7.0.02,10.05,9.014,18]icosa-5(9),7,10-trien-17-one] | – | 58 | 6 | 36
15 | C[C@]12CCc3sc(NCc4ccccc4)nc3C1=CC[C@@H]1[C@@H]2CC[C@]2(C)C(=O)CC[C@@H]12 [IIa.5, (1S,2R,13R,14S,18S)-7-(benzylamino)-2,18-dimethyl-6-thia-8-azapentacyclo[11.7.0.02,10.05,9.014,18]icosa-5(9),7,10-trien-17-one] | – | 6 | 97 | 46
16 | C[C@]12CCc3sc(Nc4ccccc4)nc3C1=CC[C@@H]1[C@@H]2CC[C@]2(C)C(=O)CC[C@@H]12 [IIa.7, (1S,2R,13R,14S,18S)-7-anilino-2,18-dimethyl-6-thia-8-azapentacyclo[11.7.0.02,10.05,9.014,18]icosa-5(9),7,10-trien-17-one] | – | – | 43 | –
17 | C[C@]12CCc3sc(Nc4ccccc4F)nc3C1=CC[C@@H]1[C@@H]2CC[C@]2(C)C(=O)CC[C@@H]12 [IIa.33, (1S,2R,13R,14S,18S)-7-(2-fluoroanilino)-2,18-dimethyl-6-thia-8-azapentacyclo[11.7.0.02,10.05,9.014,18]icosa-5(9),7,10-trien-17-one] | – | 77 | 66 | 87
18 | C[C@]12CC[C@H]3[C@@H](CC=C4c5sc(-c6ccccc6O)nc5CC[C@@]43C)[C@@H]1CC[C@@H]2O [III.6, (1S,2R,13R,14S,17S,18S)-7-(2-hydroxyphenyl)-2,18-dimethyl-8-thia-6-azapentacyclo[11.7.0.02,10.05,9.014,18]icosa-5(9),6,10-trien-17-ol] | 32 | – | – | –
19 | C[C@]12CCc3sc(NCCCN4CCOCC4)nc3C1=CC[C@@H]1[C@@H]2CC[C@]2(C)C(=O)CC[C@@H]12 [IIa.4, (1S,2R,13R,14S,18S)-2,18-dimethyl-7-(3-morpholinopropylamino)-6-thia-8-azapentacyclo[11.7.0.02,10.05,9.014,18]icosa-5(9),7,10-trien-17-one] | – | 66 | – | 74
20 | Cc1nc2c(s1)C1=CC[C@H]3[C@@H]4CC[C@H](O)[C@@]4(C)CC[C@@H]3[C@@]1(C)CC2 [III.1, (1S,2R,13R,14S,17S,18S)-2,7,18-trimethyl-8-thia-6-azapentacyclo[11.7.0.02,10.05,9.014,18]icosa-5(9),6,10-trien-17-ol] | 58 | – | – | –
21 | C[C@]12CC[C@H]3[C@@H](CC=C4c5sc(-c6ccc(Br)cc6)nc5CC[C@@]43C)[C@@H]1CC[C@@H]2O [III.19, (1S,2R,13R,14S,17S,18S)-7-(4-bromophenyl)-2,18-dimethyl-8-thia-6-azapentacyclo[11.7.0.02,10.05,9.014,18]icosa-5(9),6,10-trien-17-ol] | 58 | – | – | –
